Data on 29 molecules can be found in patent publication US11236068B2, “Fused ring compounds” (Genentech, Inc., priority 2018, dated 2022).

K-Ras G12C, sequence (P01116 other isoform, or with tags, fused parts or gaps G12C): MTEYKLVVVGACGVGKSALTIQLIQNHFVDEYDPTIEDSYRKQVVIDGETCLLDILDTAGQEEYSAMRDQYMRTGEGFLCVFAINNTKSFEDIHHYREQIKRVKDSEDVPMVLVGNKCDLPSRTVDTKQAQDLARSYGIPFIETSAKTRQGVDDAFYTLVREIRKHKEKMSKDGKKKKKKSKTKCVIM

The assay has as its target K-Ras G12C (Homo sapiens (Human), UniProt P01116, G12C). As to the kind of experiment: Western blot assay for in cell alkylation of K-Ras G12C (HCC1171 cells). Format: cell-based. The conditions noted are these: 18 hours at 37° C., 7 point dose response. Here is the method:
HCC1171 cells were maintained in RPMI1640 supplemented with 10% FBS. Cells were plated in a 96-well plate at 20,000 cells/well and the following day compounds were added to the cells. After 18 hours at 37° C., cells were lysed in RIPA buffer (Sigma RO278) with 0.5% SDS and protease/phosphatase inhibitor cocktail. After through mixing to enable complete lysis, the lysates were cleared by centrifugation before 20 µl was transferred from each well and combined with loading buffer and reducing agent. After heating for 10 minutes at 95° C., […] of each sample was loaded onto a 4-20% Tris-Glycine gel and electrophoresed at 110V for 165 minutes in SDS-PAGE running buffer. Gels were transferred to a nitrocellulose membrane, blocked for 1 hour and stained overnight at 4° C. with primary antibody against K-Ras (polyclonal Proteintech 12063-1-AP). The membrane was then washed thoroughly and counterstained with anti-rabbit IRDye 800CW (LI-COR 926-32211) for one hour at room temperature. After final washes, the membrane was imaged on a LI-COR Odyssey CLx at medium resolution. […] To quantify this affect, the LICOR software was used to draw a rectangle over alkylated and unalkylated bands for each well and measured the total fluorescent intensity (FI) in each of these bands. The following formula was then used to calculate % alkylation: FI(alkylated)/(FI(alkylated)+FI(unalkylated))*100 for each well.
A 7 point dose response curve was used to determine the IC50 for each compound. Cell alkylation data are presented below in Table 3.
As usually defined, the EC50 is the concentration at which the effect is half-maximal. The molecule `C=CC(=O)N1CCN(c2ncnc3cc(-c4nc(N)cc5ccccc45)c(Cl)cc23)CC1` [Example 1, 1-[4-[7-(3-amino-1-isoquinolyl)-6-chloro-quinazolin-4-yl]piperazin-1-yl]prop-2-en-1-one] displayed an EC50 of 560 nM.
To `C=CC(=O)N1CCN(c2ncnc3cc(-c4ncccc4C)c(Cl)cc23)CC1` [Example 2, 1-[4-[6-chloro-7-(3-methyl-2-pyridyl)quinazolin-4-yl]piperazin-1-yl]prop-2-en-1-one] belongs 16000 nM; to `C=CC(=O)N1CCN(c2ncnc3cc(-c4nc(N)cc5cccnc45)c(Cl)cc23)CC1` [Example 3, 1-[4-[7-(6-amino-1,7-naphthyridin-8-yl)-6-chloro-quinazolin-4-yl]piperazin-1-yl]prop-2-en-1-one], 21000 nM; to `C=CC(=O)N1CCN(c2ncnc3cc(-c4nc(N)cc5cnccc45)c(Cl)cc23)CC1` [Example 4, 1-[4-[7-(3-amino-2,6-naphthyridin-1-yl)-6-chloro-quinazolin-4-yl]piperazin-1-yl]prop-2-en-1-one], over 30000 nM.
To `C=CC(=O)N1CCN(c2ncnc3cc(-c4nc(N)cc5c(Cl)cccc45)c(Cl)cc23)CC1` [Example 5, 1-[4-[7-(3-amino-5-chloro-1-isoquinolyl)-6-chloro-quinazolin-4-yl]piperazin-1-yl]prop-2-en-1-one] belongs 2800 nM; to `C=CC(=O)N1CCN(c2ncnc3cc(-c4nc(N)cc5cc(OC)ccc45)c(Cl)cc23)CC1` [Example 6, 1-[4-[7-(3-amino-6-methoxy-1-isoquinolyl)-6-chloro-quinazolin-4-yl]piperazin-1-yl]prop-2-en-1-one], 10000 nM.
To `C=CC(=O)N1CCN(c2ncnc3cc(-c4nc(N)cc(C)c4F)c(Cl)cc23)CC1` [Example 11, 1-(4-(7-(6-amino-3-fluoro-4-methylpyridin-2-yl)-6-chloroquinazolin-4-yl)piperazin-1-yl)prop-2-en-1-one] belongs 4700 nM; to `C=CC(=O)N1CCN(c2nc(NC[C@@H](F)C(C)(C)O)nc3cc(-c4nc(N)cc(C)c4F)c(Cl)cc23)CC1` [Example 12, (R)-1-(4-(7-(6-amino-3-fluoro-4-methylpyridin-2-yl)-6-chloro-2-((2-fluoro-3-hydroxy-3-methylbutyl)amino)quinazolin-4-yl)piperazin-1-yl)prop-2-en-1-one], 8100 nM; to `C=CC(=O)N1CCN(c2ncnc3cc(-c4nc(N)cc(C)c4C)c(Cl)cc23)CC1` [Example 13, 1-(4-(7-(6-amino-3,4-dimethylpyridin-2-yl)-6-chloroquinazolin-4-yl)piperazin-1-yl)prop-2-en-1-one], 1300 nM.
With `C=CC(=O)N1CCN(c2ncnc3cc(-c4nc(N)cc(C)c4Cl)c(Cl)cc23)CC1` [Example 14, 1-(4-(7-(6-amino-3-chloro-4-methylpyridin-2-yl)-6-chloroquinazolin-4-yl)piperazin-1-yl)prop-2-en-1-one], the EC50 worked out at 400 nM.
In turn, `C=CC(=O)N1CCN(c2ncnc3cc(-c4nc(N)ccc4C)c(Cl)cc23)CC1` [Example 15, 1-(4-(7-(6-amino-3-methylpyridin-2-yl)-6-chloroquinazolin-4-yl)piperazin-1-yl)prop-2-en-1-one] came in with an EC50 of 2800 nM.
To `C=CC(=O)N1CCN(c2ncnc3cc(-c4nc(NC(C)=O)ccc4C)c(Cl)cc23)CC1` [Example 16, N-(6-[6-chloro-4-[4-(prop-2-enoyl)piperazin-1-yl]quinazolin-7-yl]-5-methylpyridin-2-yl)acetamide] belongs 8200 nM.
In the case of `C=CC(=O)N1CCN(c2ncnc3cc(-c4nc(N)ccc4C(F)(F)F)c(N4CCC4)cc23)CC1` [Example 20, 1-[4-[7-[6-amino-3-(trifluoromethyl)-2-pyridyl]-6-(azetidin-1-yl)quinazolin-4-yl]piperazin-1-yl]prop-2-en-1-one], the EC50 was 2300 nM.
To `C=CC(=O)N1CCN(c2ncnc3cc(-c4nc(N)ccc4C(F)(F)F)c(C(C)(F)F)cc23)CC1` [Example 21, 1-(4-(7-(6-amino-3-(trifluoromethyl)pyridin-2-yl)-6-(1,1-difluoroethyl)quinazolin-4-yl)piperazin-1-yl)prop-2-en-1-one] belongs 2800 nM; to `C=CC(=O)N1CCC(C#N)(c2ncnc3cc(-c4nc(N)cc(C)c4C(F)(F)F)c(Cl)cc23)CC1` [Example 22, 4-[7-[6-amino-4-methyl-3-(trifluoromethyl)-2-pyridyl]-6-chloro-quinazolin-4-yl]-1-prop-2-enoyl-piperidine-4-carbonitrile], 2900 nM; to `Cc1cc(N)nc(-c2cc3ncnc(N4CCN(C(=O)C5=CCC5)C(C#N)C4)c3cc2Cl)c1C(F)(F)F` (centres unmarked) [Example 23, 4-[7-[6-amino-4-methyl-3-(trifluoromethyl)-2-pyridyl]-6-chloro-quinazolin-4-yl]-1-(cyclobutene-1-carbonyl)piperazine-2-carbonitrile], 910 nM.
For the molecule `Cc1cc(N)nc(-c2cc3ncnc(N4CCN(C(=O)C5CO5)C(C#N)C4)c3cc2Cl)c1C(F)(F)F` (centres unmarked) [Example 24, 4-[7-[6-amino-4-methyl-3-(trifluoromethyl)-2-pyridyl]-6-chloro-quinazolin-4-yl]-1-(oxirane-2-carbonyl)piperazine-2-carbonitrile], a half-maximal effect (EC50) was put at 6300 nM.
To `C=CC(=O)N1CCN(c2ncnc3cc(-c4nc(N)ccc4C(F)(F)F)c(Cl)cc23)CC1C(F)(F)F` (centres unmarked) [Example 25, 1-[4-[7-[6-amino-3-(trifluoromethyl)-2-pyridyl]-6-chloro-quinazolin-4-yl]-2-(trifluoromethyl)piperazin-1-yl]prop-2-en-1-one] belongs 4200 nM.
To `C=C(F)C(=O)N1CCN(c2ncnc3cc(-c4nc(N)cc(C)c4C(F)(F)F)c(Cl)cc23)CC1` [Example 26, 1-(4-[7-[6-amino-4-methyl-3-(trifluoromethyl)pyridin-2-yl]-6-chloroquinazolin-4-yl]piperazin-1-yl)-2-fluoroprop-2-en-1-one] belongs 140 nM; to `C=CC(=O)N1CCN(c2ncnc3c(F)c(-c4nc(N)cc5cccc(F)c45)c(Cl)cc23)CC1` [Example 27, 1-[4-[7-(3-amino-8-fluoro-1-isoquinolyl)-6-chloro-8-fluoro-quinazolin-4-yl]piperazin-1-yl]prop-2-en-1-one], 140 nM; to `C=CC(=O)N1CCN(c2ncnc3cc(-c4nc(N)ccc4C(F)(F)F)c(C4CC4)cc23)CC1` [Example 29, 1-[4-[7-[6-amino-3-(trifluoromethyl)-2-pyridyl]-6-cyclopropyl-quinazolin-4-yl]piperazin-1-yl]prop-2-en-1-one], 830 nM.
In turn, `C=CC(=O)N1CCN(c2nc(C(F)(F)F)nc3cc(-c4nc(N)cc(C)c4C(F)(F)F)c(Cl)cc23)CC1` [Example 30, 1-(4-[7-[6-amino-4-methyl-3-(trifluoromethyl)pyridin-2-yl]-6-chloro-2-(trifluoromethyl)quinazolin-4-yl]piperazin-1-yl)prop-2-en-1-one] returned an EC50 of 7800 nM.
To `C=CC(=O)N1CCN(c2nc(NC)nc3cc(-c4nc(N)cc(C)c4C(F)(F)F)c(Cl)cc23)CC1` [Example 31, 1-(4-[7-[6-amino-4-methyl-3-(trifluoromethyl)pyridin-2-yl]-6-chloro-2-(methylamino)quinazolin-4-yl]piperazin-1-yl)prop-2-en-1-one] belongs 200 nM; to `C=CC(=O)N1CCN(c2nc(C)nc3cc(-c4nc(N)cc(C)c4C(F)(F)F)c(Cl)cc23)CC1` [Example 32, 1-(4-[7-[6-amino-4-methyl-3-(trifluoromethyl)pyridin-2-yl]-6-chloro-2-methylquinazolin-4-yl]piperazin-1-yl)prop-2-en-1-one], 200 nM; to `C=CC(=O)N1CCN(c2ncnc3cc(-c4nc(N)cc(C(F)(F)F)c4C)c(Cl)cc23)CC1` [Example 33, 1-(4-[7-[6-amino-3-methyl-4-(trifluoromethyl)pyridin-2-yl]-6-chloroquinazolin-4-yl]piperazin-1-yl)prop-2-en-1-one], 2100 nM.
To `C=CC(=O)N1CCN(c2ncnc3cc(-c4nc(N)cc(C5CC5)c4C(F)(F)F)c(Cl)cc23)CC1` [Example 34, 1-(4-(7-(6-amino-4-cyclopropyl-3-(trifluoromethyl)pyridin-2-yl)-6-chloroquinazolin-4-yl)piperazin-1-yl)prop-2-en-1-one] belongs 3400 nM.
The molecule `C=CC(=O)N1CCN(c2ncnc3cc(-c4nc(N)ccc4C(F)(F)F)c(Cl)cc23)CC1` [Example 35, 1-(4-[7-[6-amino-3-(trifluoromethyl)pyridin-2-yl]-6-chloroquinazolin-4-yl]piperazin-1-yl)prop-2-en-1-one] gave an EC50 of 450 nM. This EC50 lies about 7.6-fold lower than the previous one.
To `C=CC(=O)N1CCN(c2ncnc3cc(-c4nc(NC(=O)C5CC5)cc5ccccc45)c(Cl)cc23)CC1` [Example 36, N-(1-(4-(4-acryloylpiperazin-1-yl)-6-chloroquinazolin-7-yl)isoquinolin-3-yl)cyclopropanecarboxamide] belongs 5500 nM.
To `C=CC(=O)N1CCN(c2ncnc3cc(-c4nc(NCC#N)cc5ccccc45)c(Cl)cc23)CC1` [Example 39, 2-[(1-[6-chloro-4-[4-(prop-2-enoyl)piperazin-1-yl]quinazolin-7-yl]isoquinolin-3-yl)amino]acetonitrile] belongs 10000 nM.
